Target: T1, MDM2 protein (Mus musculus, UniProt P23804)
T1 construct: from tissue; host or cells: liver of C57BL/6J wild-type mice
Test: Western blot of MDM2 protein in liver of mice given the compound
Type: in vivo
Details: C57BL/6J mice, 48 hours after administration
Method: In Example 4, degradation (knockdown) of the endogenous wild-type p53 protein and MDM2 protein in mouse individuals in which TIBC-CANDDY_MLN had been administered was evaluated by Western blot analysis.
TIBC-CANDDY_MLN was dissolved in DMSO immediately before administration, and then dissolved in corn oil (Code No. 25606-55, Nacalai Tesque) so that the concentration of DMSO was 10 vol %, and then a dose of 50 mg/kg body weight or 100 mg/kg body weight was administered intraperitoneally to C57BL/6J wild-type mice (7 to 8 weeks old, male) (CLEA Japan, Inc.) (n=3). As a control, an injection carrier (corn oil containing 10 vol % DMSO) was used. The mice were kept under an environment of ad libitum access to food and water. […]
The frozen tissue (0.04 g) was triturated, and then 980 μL of 1×TKM tissue lysis buffer (50 mM triethanolamine (pH 7.8), 50 mM KCl, 5 mM MgCl2, 0.25 M sucrose, 1 mM PMSF, protein inhibitors cocktail-EDTA free (Code No. 03969-21, Nacalai Tesque), 1 mM DTT, Recombinant RNase inhibitor 5 μl/mL (40 U/μl, Cat No. 2313A, Lot No. K8402DA, TAKARA Bio)) was added, and dissolved by rotation for 15 minutes (1 rpm, 25° C.). […] The concentration of proteins in the tissue extract was quantified with a spectrophotometer with the tissue extract that had been diluted 20 times using DEPC-treated water. […]

T1 sequence (P23804 whole entry): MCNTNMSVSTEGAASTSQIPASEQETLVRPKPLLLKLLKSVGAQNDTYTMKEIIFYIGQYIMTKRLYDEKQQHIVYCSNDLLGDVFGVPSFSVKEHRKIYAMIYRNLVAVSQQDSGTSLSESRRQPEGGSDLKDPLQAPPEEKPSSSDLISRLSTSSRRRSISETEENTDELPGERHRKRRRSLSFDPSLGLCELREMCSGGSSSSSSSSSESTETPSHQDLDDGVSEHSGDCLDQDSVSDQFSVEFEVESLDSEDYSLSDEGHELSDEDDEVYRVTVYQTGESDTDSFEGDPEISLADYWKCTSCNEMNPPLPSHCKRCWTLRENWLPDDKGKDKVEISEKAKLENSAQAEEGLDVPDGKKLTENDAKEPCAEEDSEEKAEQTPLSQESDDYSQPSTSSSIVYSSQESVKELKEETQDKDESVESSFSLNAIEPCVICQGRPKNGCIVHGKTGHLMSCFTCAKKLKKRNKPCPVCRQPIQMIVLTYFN

amount of MDM2 protein in the liver (50 mg/kg body weight intraperitoneally): reduced | amount of MDM2 protein in the liver (100 mg/kg body weight intraperitoneally): reduced
SMILES: CC(C)C[C@H](NC(=O)CNC(=O)c1cc(Cl)ccc1Cl)C(=O)NCCCCCCC(=O)Nc1ccc(C(=O)/C=C/c2ccc(I)cc2)cc1 [TIBC-CANDDY_MLN]

Reference: US11007269B2, “P53 degradation inducing molecule and pharmaceutical composition” (Tokyo University of Science Foundation, priority 2016, dated 2021)
